Test system: human embryonic stem cells
Test: Metabolite profiling (LC/ESI-TOF mass spectrometry) of extracellular media of hESCs treated with alcohol
Assay type: cell-based
Conditions: ETOH 0.3, 24 H
Text: Binned masses were annotated in silico by querying the neutral masses in several different databases. These databases included Metlin, Biological Magnetic Resonance Data Bank (BMRB), NIST Chemistry WebBook, and the Human Metabolome Database. A mass was considered identified when its neutral mass was within 10 ppm of a known compound annotated in one of the databases listed above.

## CCO [ETOH]
  Fold: 5-Methoxytryptophan, mass 234.125, RT 47.0879: −1.632 fold
  Fold: GABA analogue, mass 171.1244, RT 26.70635: 3.755 fold
  Fold: Hexylamine, mass 101.1201, RT 10.21225: 2.192 fold
  Fold: N-Methyl-2-pyrrolidinone, mass 99.0689, RT 15.48433: 1.468 fold
  Fold: Unknown, mass 83.0372, RT 85.57399: 2.472 fold
  Fold: Unknown, mass 99.1043, RT 52.01225: 3.331 fold
  Fold: Unknown, mass 130.9541, RT 88.64043: 2.025 fold
  Fold: Unknown, mass 148.0052, RT 3.958833: −1.73 fold
  Fold: Unknown, mass 153.0811, RT 27.80141: −1.6976 fold
  Fold: Unknown, mass 161.0805, RT 14.22357: −6.435 fold
  Fold: Unknown, mass 178.5546, RT 28.52393: −2.764 fold
  Fold: Unknown, mass 194.0836, RT 22.61355: −1.703 fold
  Fold: Unknown, mass 222.0401, RT 27.57188: −2.112 fold
  Fold: Unknown, mass 223.119, RT 13.6845: −2.74 fold
  Fold: Unknown, mass 229.2025, RT 32.9941: −1.377 fold
  Fold: Unknown, mass 237.0041, RT 3.673694: 2.989 fold
  Fold: Unknown, mass 239.9592, RT 5.176232: 1.64 fold
  Fold: Unknown, mass 267.2543, RT 40.75868: −1.496 fold
  Fold: Unknown, mass 271.9364, RT 4.86619: 4.07 fold
  Fold: Unknown, mass 275.1193, RT 22.86183: −2.237 fold
  Fold: Unknown, mass 288.2632, RT 75.76147: 1.969 fold
  Fold: Unknown, mass 294.1531, RT 24.21651: −1.892 fold
  Fold: Unknown, mass 298.1537, RT 66.35884: 3.758 fold
  Fold: Unknown, mass 299.1929, RT 19.66398: −1.571 fold
  Fold: Unknown, mass 303.8875, RT 4.954547: 2.07 fold
  Fold: Unknown, mass 313.199, RT 44.09424: 2.292 fold
  Fold: Unknown, mass 324.1666, RT 30.19245: −1.593 fold
  Fold: Unknown, mass 337.2012, RT 8.542672: 1.287 fold
  Fold: Unknown, mass 340.9252, RT 5.033976: −1.836 fold
  Fold: Unknown, mass 342.1482, RT 68.02448: −1.853 fold
  Fold: Unknown, mass 360.1321, RT 18.50245: −2.289 fold
  Fold: Unknown, mass 362.2787, RT 83.72506: −2.542 fold
  Fold: Unknown, mass 378.2956, RT 41.28494: 1.636 fold
  Fold: Unknown, mass 393.1889, RT 15.90129: −1.511 fold
  Fold: Unknown, mass 440.0284, RT 54.46495: 2.51 fold
  Fold: Unknown, mass 444.2237, RT 51.58546: 2.242 fold
Retention time 4.613879
  Fold, Unknown metabolite, Mass 820.8181: −1.851
Retention time 4.826824
  Fold, Unknown metabolite, Mass 711.8344: −2.256
Retention time 5.217833
  Fold, Unknown metabolite, Mass 913.8074: −1.885
Retention time 5.259716
  Fold, Unknown metabolite, Mass 888.8041: 1.222
Retention time 5.387775
  Fold, Unknown metabolite, Mass 922.0048: −2.755
Retention time 5.742094
  Fold, Unknown metabolite, Mass 555.8505: −1.518
Retention time 5.903169
  Fold, metabolite Ethanesulfonic acid, Mass 579.2519: −1.48
Retention time 8.056862
  Fold, metabolite Oxidized glutathione, Mass 612.1509: −1.595
Retention time 10.8217
  Fold, Unknown metabolite, Mass 485.204: 2.038
Retention time 10.82859
  Fold, Unknown metabolite, Mass 482.1942: −1.528
Retention time 16.3338
  Fold, Unknown metabolite, Mass 666.3836: −1.371
Retention time 25.14927
  Fold, metabolite L-Urobilinogen, Mass 596.3543: 1.835
Retention time 25.3287
  Fold, Unknown metabolite, Mass 464.225: −1.717
Retention time 28.27806
  Fold, Unknown metabolite, Mass 455.2052: −2.509
Retention time 29.86415
  Fold, Unknown metabolite, Mass 447.2509: 2.103
Retention time 30.05687
  Fold, Unknown metabolite, Mass 444.2789: −1.835
Retention time 30.43889
  Fold, Unknown metabolite, Mass 707.3933: −1.792
Retention time 30.46172
  Fold, Unknown metabolite, Mass 466.2921: −1.959
Retention time 30.83472
  Fold, Unknown metabolite, Mass 488.305: −2.185
Retention time 30.88032
  Fold, Unknown metabolite, Mass 488.8071: −1.92
Retention time 31.20706
  Fold, Unknown metabolite, Mass 510.3182: −2.264
Retention time 31.22083
  Fold, Unknown metabolite, Mass 510.8202: −2.045
Retention time 31.53434
  Fold, Unknown metabolite, Mass 523.8187: −2.173
Retention time 31.54325
  Fold, Unknown metabolite, Mass 591.3789: −1.982
Retention time 31.58889
  Fold, Unknown metabolite, Mass 532.8335: −2.169
Retention time 31.8519
  Fold, Unknown metabolite, Mass 554.3444: −2.37
Retention time 31.891
  Fold, Unknown metabolite, Mass 554.8471: −2.297
Retention time 32.15777
  Fold, Unknown metabolite, Mass 576.3582: −2.209
Retention time 32.24719
  Fold, Unknown metabolite, Mass 541.3274: −2.123
Retention time 32.70236
  Fold, Unknown metabolite, Mass 611.871: −2.192
Retention time 32.73907
  Fold, Unknown metabolite, Mass 620.8861: −2.321
Retention time 32.95522
  Fold, Unknown metabolite, Mass 642.397: −2.211
Retention time 33.48766
  Fold, Unknown metabolite, Mass 677.9101: −2.647
Retention time 33.5733
  Fold, Unknown metabolite, Mass 463.2914: −1.665
Retention time 33.68894
  Fold, Unknown metabolite, Mass 466.615: −3.279
Retention time 34.33545
  Fold, Unknown metabolite, Mass 774.4767: −2.342
Retention time 34.35986
  Fold, Unknown metabolite, Mass 521.9924: −1.584
Retention time 35.028
  Fold, Unknown metabolite, Mass 751.4193: −1.703
Retention time 40.84822
  Fold, metabolite Neu5Acalpha2-3Galbeta1-4Glcbeta-Sp, Mass 702.2497: 1.283
Retention time 44.98056
  Fold, Unknown metabolite, Mass 449.2611: −3.471
Retention time 46.51446
  Fold, Unknown metabolite, Mass 467.3804: −2.135
Retention time 46.57666
  Fold, Unknown metabolite, Mass 518.3914: −2.707
Retention time 51.52268
  Fold, Unknown metabolite, Mass 539.4374: −1.93
Retention time 54.8719
  Fold, Unknown metabolite, Mass 446.0431: −2.221
Retention time 56.18269
  Fold, Unknown metabolite, Mass 707.4296: −2.434
Retention time 56.3513
  Fold, Unknown metabolite, Mass 611.4952: −1.9811
Retention time 69.32865
  Fold, Unknown metabolite, Mass 765.5211: 1.884
Retention time 72.7735
  Fold, Unknown metabolite, Mass 482.3062: −2.618

— patent US8703483B2, “Reagents and methods for using human embryonic stem cells to evaluate toxicity of pharmaceutical compounds and other chemicals” (Wisconsin Alumni Research Foundation, priority 2006, dated 2014)
